Consider 3 compounds from patent US8642784B2, “Biologically active compound N-[3-(4-nitrophenylamino)-indole-2-ilmethylene]aminoguanidine hydrochloride with anti-inflammatory activity” (priority 2010, dated 2014).

Where two headings read alike, the source gives them in different places. Marks after values point to notes of the source that are not given here.

Data set [1] has as its system carrageenan-induced peritonitis in mice. In words: Carrageenan-induced peritonitis in mice, volume of exudate. It is filed as in vivo. How it is done: Research was carried out by a method described in [5]. Experiments were performed using male mice with body mass 23-24 g, in groups of 10 animals. […] The results were processed using variation statistics methods for biological research (mean standard error, means were calculated using Student's t-distribution).

Data set [2] relates to LPS-induced peritonitis in mice. In words: LPS-induced peritonitis in mice, volume of exudate. The class given is in vivo. How it is done: Activity was studies using the methods listed in “Methodical recommendations on experimental (preclinical) research of new nonsteroidal anti-inflammatory drugs” for new compounds screening, in animal models of peritonitis induced by lipopolysaccharide (LPS) and carrageenan.
Anti-exudative action was studied in male mice with body mice 22.0-23.0 g. Peritonitis was induced by intraperitoneal administration of lipopolysaccharide (LPS), produced from Escherichia coli (Sigma) 1.0 mg/kg, as described in [6]: after 4 hours the animals were sacrificed by CO2, their peritoneal cavity opened and the volume of exudate was measured in ml. Studied compounds and drugs of comparison were administered per os one hour before LPS, control group was composed of mice receiving 0.3 ml of saline before LPS administration. Each group had 10 animals.
(§1) The results were processed using variation statistics methods for biological research (mean standard error, means were calculated using Student's t-distribution).

Data set [3] has as its system LPS-induced peritonitis in rats. In words: LPS-induced peritonitis in rats, volume of exudate. It is filed as in vivo. The conditions noted are these: rats; for ED50: LPS-induced peritonitis, per os. How it is done:
Anti-exudative action was studied in male rate with body mass 170.0-180.0 g. Peritonitis was induced by intraperitoneal administration of lipopolysaccharide (LPS), produced from Escherichia coli (Sigma)—1.0 mg/kg as described in [6]: after 4 hours the animals were sacrificed by CO2, their peritoneal cavity opened and the volume of exudate was measured in ml. Studied compounds and drugs of comparison were administered per os one hour before LPS, control group was composed of rats receiving 0.3 ml of saline before LPS administration. Each group had 7 animals.
as §1

In data set [4] the test system is mice stomach. The class given is in vivo. The conditions noted are these: for Average ulcerogenic index (4-point scale) of chronic administration of pharmacological dose: mice, per os 7 days, compound 2 200 mg/kg, indomethacin 20 mg/kg, voltaren 50 mg/kg, aminoguanidine 200 mg/kg; for Ulcerogenic effects of drugs of comparison: mice ulceration models, summary of table 4. How it is done:
(§2) Studies were performed according to the following scheme: • 1. […] Study of the compounds' ulcerogenic action using pharmaceutical dose during 7 days of administration. • 3. Aggravation of ulcerogenic effects of studied compounds by 0.6H hydrochloric acid. • 4. Aggravation of ulcerogenic effects of studied compounds by the known NSAIDs (indomethacin). 1.
(§3) Ulcerogenic effect was assessed using 4-point scale: 0—no damage; 0.5—hyperemia; 1—insignificant damage (1 or 2 small bleedings); 2—multiple damage (erosions, small bleedings); 3—significant and multiple damage (erosions, bleedings); 4—severe damage, affecting all gastric mucosa (massive bleedings, erosions, perforations).
After 7 days the animals were sacrificed by CO2, their stomachs extracted and the number of ulcers counted.
(§4) Drugs of comparison: indomethacin 20 mg/kg, voltaren—50 mg/kg and aminoguanidine—200 mg/kg. Each test group had 10 animals.

Data set [5] deals with mice stomach. In words: Aggravation of ulcerogenic effects by 0.6H hydrochloric acid. As to conditions: compound 2 100 mg/kg, indomethacin 20 mg/kg, voltaren 50 mg/kg, aminoguanidine 200 mg/kg, 1 hour before 0.6H HCl 5 ml/kg, after 4 hours. The class given is in vivo. How it is done: as §2, §3
(§5) Male mice with body mass 23-24 g were deprived of food for 24 hours, water access was not limited.
as §4

For data set [6], the system named is mice stomach. In words: Aggravation of ulcerogenic effect by indomethacin. As to conditions: mice; compound 2 100 mg/kg, voltaren 50 mg/kg, aminoguanidine 200 mg/kg, 1 hour before indomethacin 20 mg/kg; after 5 hours. The class given is in vivo. How it is done: as §2, §3, §5
Drugs of comparison: voltaren—50 mg/kg and aminoguanidine—200 mg/kg. Each test group had 10 animals.

Data set [7] addresses inducible isoenzymes of NO-synthase (Homo sapiens, UniProt P35228). As to conditions: most in vitro systems; cited from earlier work.
Data set [8] has as its system constitutive forms of NO-synthase. The conditions noted are these: compared with L-NMMA; cited from earlier work.
A further data set deals with animal models. The conditions noted are these: in vivo; cited from earlier work.

In the case of `N=C(N)NN` [Aminoguanidine, N-aminoguanidine], the entries for the “Anti-inflammatory activity in carrageenan-induced peritonitis model, % of control” value in [1] (50.0 mg/kg per os), in [1] (100.0 mg/kg per os) and in [1] (200.0 mg/kg per os) were 25.5* % of control, 70.6* % of control and 84.3* % of control, respectively. The “Anti-inflammatory activity in LPS-induced peritonitis model, % of control” value is 51.1* % of control in data set [2] (50.0 mg/kg per os); 73.3* % of control in data set [2] (100.0 mg/kg per os); 91.1* % of control in data set [2] (200.0 mg/kg per os); 4.0 % of control in data set [3] (25.0 mg/kg per os); 22.0* % of control in data set [3] (50.0 mg/kg per os); 58.0* % of control in [3] (75.0 mg/kg per os). Besides, the results for the “Anti-inflammatory activity in LPS-induced peritonitis model, % of control” value in [3] (100.0 mg/kg per os) and in data set [3] (200.0 mg/kg per os) were 78.0* % of control and 100.0* % of control, respectively. Further, the ED50 in data set [3] was 70.0 ± 2.5 mg/kg. Further, the “Average ulcerogenic index (4-point scale) of chronic administration of pharmacological dose” value in the data set on mice stomach [4] is given as 0. The “Average ulcerogenic index (4-point scale) of combining the studied compounds with hydrochloric acid” value with mice stomach [5] is 0.15. Besides, in the data set on mice stomach [6], the “Average ulcerogenic index (4-point scale) of combining the studied compounds with indomethacin” value is listed as 0.19. Also, the “Inhibition of inducible isoenzymes of NO-synthase” value in data set [7] was “equally effective in inhibiting inducible isoenzymes”. Moreover, the “Activity towards constitutive forms of NO-synthase” value in [8] was “much less active towards constitutive forms”. Moreover, the “Effect in animal models of inflammation, septic shock, endotoxin” value in the data set on animal models was “reduces the severity of inflammation and septic shock, improves survival during endotoxin administration”.
In the case of `COc1ccc2c(c1)c(CC(=O)O)c(C)n2C(=O)c1ccc(Cl)cc1` [Indomethacin, indomethacin], in the data set on mice stomach [4], the “Ulcerogenic effects of drugs of comparison” value is “had ulcerogenic effects” and the “Average ulcerogenic index (4-point scale) of chronic administration of pharmacological dose” value was determined as 1.15. For the same compound, the “Average ulcerogenic index (4-point scale) of combining the studied compounds with hydrochloric acid” value in the data set with mice stomach [5] was 2.4.
Consider `O=C(O)Cc1ccccc1Nc1c(Cl)cccc1Cl` [Voltaren, sodium diclofenac], for which the “Anti-inflammatory activity in carrageenan-induced peritonitis model, % of control” value in [1] (25.0 mg/kg per os) is 80.4* % of control; in data set [1] (50.0 mg/kg per os) it was 90.2* % of control; in data set [1] (100.0 mg/kg per os), 100.0* % of control. The “Anti-inflammatory activity in LPS-induced peritonitis model, % of control” value is reported as 82.2* % of control in [2] (25.0 mg/kg per os); 95.6* % of control in data set [2] (50.0 mg/kg per os); 100.0* % of control in data set [2] (100.0 mg/kg per os); 22.0 % of control in data set [3] (10.0 mg/kg per os); 65.0* % of control in data set [3] (25.0 mg/kg per os); 84.0* % of control in data set [3] (50.0 mg/kg per os). In data set [3] (75.0 mg/kg per os), the “Anti-inflammatory activity in LPS-induced peritonitis model, % of control” value is reported as 100.0* % of control. The median effective dose (ED50) in [3] (Rattus norvegicus, po, read-out: ED50) was found to be 20 ± 1.5 mg/kg. Moreover, in the data set with mice stomach [4], the “Ulcerogenic effects of drugs of comparison” value is recorded as “had ulcerogenic effects”. For the same compound, the “Average ulcerogenic index (4-point scale) of chronic administration of pharmacological dose” value with mice stomach [4] is on record as 0.35. Also, in the data set on mice stomach [5], the “Average ulcerogenic index (4-point scale) of combining the studied compounds with hydrochloric acid” value was found to be 0.55. In the data set on mice stomach [6], the “Average ulcerogenic index (4-point scale) of combining the studied compounds with indomethacin” value is listed as 2.5.
